According to publication PMC8308911, “Pharmacokinetic Study of Anti-osteoarthritic Compounds of a Standardized Fraction from Sphaeralcea Angustifolia” (Pharmaceuticals, 2021):
Where two headings read alike, the source gives them in different places.

How the values were obtained:
[1] = Stability of the active compounds in mouse plasma under handling and storage conditions; conditions: mice plasma
Method: (§1) The investigation presented here expected manipulation conditions during all of the sample storage and process periods, which included the stability data from the freeze/defrost, bench-top, autosampler, and long-term stability tests. For all stability studies, fresh QC samples were evaluated by using a freshly prepared standard curve for the measurements. The analyzed conditions were 0, 8, and 24 h at room temperature, 8 h at 4 °C, and 30 days at −70 °C. The concentrations obtained from all of the stability studies were compared with the fresh QC samples, and the percentage of concentration deviation was calculated.

[2] = mouse
Method: as §1

[3] = Autosampler (4 °C, 8 h), nominal 2.5 μg/mL
[4] = Autosampler (4 °C, 8 h), nominal 5 μg/mL
[5] = Autosampler (4 °C, 8 h), nominal 10 μg/mL
[6] = Long-term (−70 °C, 1 month), nominal 2.5 μg/mL
[7] = Long-term (−70 °C, 1 month), nominal 5 μg/mL
[8] = Long-term (−70 °C, 1 month), nominal 10 μg/mL
[9] = room temperature, 0 h, nominal 2.5 μg/mL
[10] = room temperature, 0 h, nominal 5 μg/mL
[11] = room temperature, 0 h, nominal 10 μg/mL
[12] = room temperature, 8 h, nominal 2.5 μg/mL
[13] = room temperature, 8 h, nominal 5 μg/mL
[14] = room temperature, 8 h, nominal 10 μg/mL
[15] = room temperature, 24 h, nominal 2.5 μg/mL
[16] = room temperature, 24 h, nominal 5 μg/mL
[17] = room temperature, 24 h, nominal 10 μg/mL

COc1cc2oc(=O)ccc2c(O)c1OC [Tomentin, tomentin]
Accuracy Bias [1, 3]: −2.64%
Observed Concentration [1, 3]: 2.43 ± 0.11 µg/mL
Accuracy Bias [1, 4]: −1.65%
Observed Concentration [1, 4]: 4.92 ± 0.14 µg/mL
Accuracy Bias [1, 5]: −0.65%
Observed Concentration [1, 5]: 9.93 ± 0.62 µg/mL
Accuracy Bias [1, 6]: −7.61%
Observed Concentration [1, 6]: 2.31 ± 0.09 µg/mL
Accuracy Bias [1, 7]: −2.90%
Observed Concentration [1, 7]: 4.85 ± 0.18 µg/mL
Accuracy Bias [1, 8]: −3.74%
Observed Concentration [1, 8]: 9.63 ± 0.65 µg/mL
Accuracy Bias [1, 9]: −4.59%
Observed Concentration [1, 9]: 2.39 ± 0.09 µg/mL
Accuracy Bias [1, 10]: −1.48%
Observed Concentration [1, 10]: 4.93 ± 0.11 µg/mL
Accuracy Bias [1, 11]: −0.41%
Observed Concentration [1, 11]: 9.96 ± 0.30 µg/mL
Accuracy Bias [1, 12]: −7.60%
Observed Concentration [1, 12]: 2.31 ± 0.08 µg/mL
Accuracy Bias [1, 13]: −0.86%
Observed Concentration [1, 13]: 4.96 ± 0.14 µg/mL
Accuracy Bias [1, 14]: −1.64%
Observed Concentration [1, 14]: 9.84 ± 0.40 µg/mL
Accuracy Bias [1, 15]: −5.93%
Observed Concentration [1, 15]: 2.35 ± 0.09 µg/mL
Accuracy Bias [1, 16]: −1.73%
Observed Concentration [1, 16]: 4.91 ± 0.17 µg/mL
Accuracy Bias [1, 17]: −4.52%
Observed Concentration [1, 17]: 9.55 ± 0.19 µg/mL

COc1cc2ccc(=O)oc2cc1O [Scopoletin, scopoletin]
Accuracy Bias ([2]; 0 h, 2.5 μg/mL): −0.48%
Observed Concentration ([2]; 0 h, 2.5 μg/mL): 2.49 ± 0.12 µg/mL
Accuracy Bias ([2]; 0 h, 5 μg/mL): 0.39%
Observed Concentration ([2]; 0 h, 5 μg/mL): 5.02 ± 0.08 µg/mL
Accuracy Bias ([2]; 0 h, 10 μg/mL): 0.04%
Observed Concentration ([2]; 0 h, 10 μg/mL): 10.00 ± 0.37 µg/mL
Accuracy Bias ([2]; 1 month, 2.5 μg/mL): −7.05%
Observed Concentration ([2]; 1 month, 2.5 μg/mL): 2.32 ± 0.08 µg/mL
Accuracy Bias ([2]; 1 month, 5 μg/mL): −2.27%
Observed Concentration ([2]; 1 month, 5 μg/mL): 4.89 ± 0.17 µg/mL
Accuracy Bias ([2]; 1 month, 10 μg/mL): −0.46%
Observed Concentration ([2]; 1 month, 10 μg/mL): 9.95 ± 0.38 µg/mL
Accuracy Bias ([2]; 24 h, 2.5 μg/mL): −4.63%
Observed Concentration ([2]; 24 h, 2.5 μg/mL): 2.38 ± 0.08 µg/mL
Accuracy Bias ([2]; 24 h, 5 μg/mL): 0.43%
Observed Concentration ([2]; 24 h, 5 μg/mL): 5.02 ± 0.10 µg/mL
Accuracy Bias ([2]; 24 h, 10 μg/mL): −6.61%
Observed Concentration ([2]; 24 h, 10 μg/mL): 9.34 ± 0.27 µg/mL
